# Assay results as given in patent US9132118B2, “Taxane analogs for the treatment of brain cancer” (Tapestry Pharmaceuticals, Inc., priority 2007, dated 2015).
# Entries after “also recorded” stand apart in the source; their conditions may differ.
# Key:
# [1] = Efficacy of oral or iv S-(1) in mouse xenografts; type: in vivo, nude mice; details: mouse, in vivo, po; nude mice; from efficacy studies and MTD studies; read-out: apparent oral bioavailability
# Protocol: (§1) Summary of Experimental Protocol: Human neuroblastoma tumor cells were implanted via subcutaneous injection of 1-10×10^6 cells in nude mice. Tumors were allowed to grow to 200 mg+/−50 mg in size. Drug dosing was initiated, and tumor volume and body weight were recorded twice weekly.
# (§2) The mean value for % body weight change and % tumor volume increase for each experimental group was plotted including error bars for the standard error of the mean.
# (§3) Other metrics for assessing antitumor effects include: % T/C values as calculated by the following formula:
# (§4) [formula] Log Kill=(T−C)/3.32×(Td)
# [2] = system: human tumor xenografts; experiment: Efficacy of oral or iv S-(1) in mouse xenografts; type: in vivo, nude mice; details: human tumor xenografts in nude mice
# Protocol: as §1, §2, §3, §4
# [3] = Phase 1 Study S-(1)-01, i.v. weekly x3 in a 28-day cycle, safety and pharmacokinetics; type: in vivo, patients; details: for AUC0-24 / Cl / Vss / t1/2: Study S-(1)-01 (50:50 Cremophor EL-P/ethanol), i.v., first dose
# Protocol: Both trials have enrolled patients with advanced solid tumors, non-Hodgkin's lymphoma or Hodgkin's lymphoma that have recurred or progressed following at least standard therapy; patients with malignancies for which there is no standard therapy; patients who are not candidates for standard therapy; or patients who have chosen not to pursue standard therapy.
# Plasma pharmacokinetics of S-(1) were assessed following the first dose of S-(1) in both studies. Plasma samples were analyzed for S-(1) using a validated LC/MS-MS method.
# Treatment cohorts consisted of 3 pts and were expanded to 6 pts in the face of dose-limiting toxicity (DLT); pts could remain on study until the development of progressive disease or an intolerable adverse event. DLT was defined as Gr 4 heme toxicity lasting 7 days; febrile neutropenia, Gr 3 thrombocytopenia with bleeding, Gr 3 elevation of transaminases lasting 7 days or any other Gr 3/4 toxicity other than nausea or vomiting. Results: 25 pts (M:F 16:9, median age 60, range 24-86) were enrolled in 7 dose levels ranging from 7-185 mg/m^2. Pts' cancers included colorectal (6 pts); NSCLC (2); prostate (2); squamous cell carcinoma (2) and 1 pt each with cervical, breast, ovarian, gastric, pancreatic, bladder endometrial, NSCLC, SCLC, glioblastoma, melanoma, renal cell and hepatocellular carcinoma.
# [4] = S-(1) rat oral bioavailability, formulations evaluated in vivo
# Protocol: IV formulation (Cremophor El P/alcohol) and a suspension of the compound of Formula S-(1) in aqueous medium: Several studies were performed to investigate specific parameters.
# Using the 50:50 CremophoπEthanol formulation as a case study (AUC last: 2540; norm AUCinf: 477), F was calculated from the ratio of the normalized PO and IV AUCs: F(%)=norm. AUC PO/norm. AUC IV.
# [5] = S-(1) Injection mouse PK parameters, IV and oral; type: in vivo
# [6] = system: bovine microtubule protein (tubulin plus microtubule associated proteins); experiment: In vitro ED50 MT polymerization study (DAPI fluorescence tubulin assay); type: biochemical
# Protocol: In this tubulin binding assay, microtubule protein (MTP) is used as a substrate. The assay contains bovine tubulin plus microtubule associated proteins (MAP). MTP is polymerized into microtubules in the presence of DAPI (4′,6′-diamidino-2-phenylindole), a fluorescent compound. DAPI binds to tubulin; when microtubules are formed and there is an enhancement of fluorescence. The microtubule formation is measured as a function of time, using a fluorescence plate reader. […] The method used is based on the procedure published by Donna M. Barron, et al, “Fluorescence-based high-throughput assay for antimicrotuble drugs” Analytical Biochemistry, 315: 49-56, 2003, which is incorporated by reference in its entirety. The excitation wavelength, in that assay, was set at 370 nm and the emission wavelength was set at 450 nm for the DAPI experiments.
# A Bio-Tek FL 600 microplate Fluorescence Reader was used to measure the relative level of fluorescence in the DAPI assay.
# Assays were conducted in 96-well plates. […] The final DMSO concentration was 4%. The plates were incubated at 37° C. for 30 minutes and read in a fluorescence plate reader using an excitation wavelength of 360 nm and an emission wavelength of 460 nm. Fluorescence values were corrected for the sample without compound. […] Experiments were done twice in triplicate. Results were subsequently combined and fit to a non-linear regression program.
# [7] = weekly study summary, dose of 127.5 mg/m^2
smiles,measurement,setting,value
C=C[C@H]1O[C@H]2CC3OC[C@@]3(OC(C)=O)[C@H]3[C@H](OC(=O)c4ccccc4)[C@]4(C(C)(C)O)C[C@H](OC(=O)[C@H](O)[C@H](CC(C)C)NC(=O)OC(C)(C)C)C(C)=C4[C@H](OC(C)=O)[C@H](O1)[C@]23C (stereo partly drawn) [S-(1)],bioavailability,[1],70 to 80%
same,efficacy / antitumor activity in mouse xenografts (in words),[2],"demonstrated antitumor activity against multiple human tumor xenografts in nude mice, including xenografts that expressed mdr-1 and that were resistant to other taxanes; also recorded: suppressed the growth of multiple human tumor xenografts in nude mice, including xenografts that expressed mdr-1 and that were resistant to other taxanes; also recorded: shows efficacy"
same,AUC0-24,"[3]; 14 mg/m^2, plasma",457 ± 297 ng·h/mL
same,Cl,"[3]; 14 mg/m^2, plasma",35.5 ± 29.7 L/hr/m^2
same,Vss,"[3]; 14 mg/m^2, plasma",23.2 ± 74.5 L/m^2
same,t1/2,"[3]; 14 mg/m^2, plasma",8.4 ± 11.5 h
same,AUC0-24,"[3]; 28 mg/m^2, plasma",682 ± 322 ng·h/mL
same,Cl,"[3]; 28 mg/m^2, plasma",43.5 ± 14.5 L/hr/m^2
same,Vss,"[3]; 28 mg/m^2, plasma",309 ± 161 L/m^2
same,t1/2,"[3]; 28 mg/m^2, plasma",3.45 ± 1.09 h
same,AUC0-24,"[3]; 56 mg/m^2, plasma",2070 ± 888 ng·h/mL
same,Cl,"[3]; 56 mg/m^2, plasma",28.6 ± 13.2 L/hr/m^2
same,Vss,"[3]; 56 mg/m^2, plasma",216 ± 70 L/m^2
same,t1/2,"[3]; 56 mg/m^2, plasma",5.66 ± 3.63 h
same,AUC0-24,"[3]; 85 mg/m^2, plasma",5970 ± 3900 ng·h/mL
same,Cl,"[3]; 85 mg/m^2, plasma",16.6 ± 9.26 L/hr/m^2
same,Vss,"[3]; 85 mg/m^2, plasma",142 ± 75.6 L/m^2
same,t1/2,"[3]; 85 mg/m^2, plasma",5.52 ± 5.26 h
same,AUC0-24,"[3]; 127.5 mg/m^2, plasma",4460 ± 2140 ng·h/mL
same,Cl,"[3]; 127.5 mg/m^2, plasma",30.2 ± 11.9 L/hr/m^2
same,Vss,"[3]; 127.5 mg/m^2, plasma",239 ± 116 L/m^2
same,t1/2,"[3]; 127.5 mg/m^2, plasma",6.59 ± 2.60 h
same,dose limiting toxicity,"[3]; Study S-(1)-01, i.v. weekly ×3, observed in one patient at 185 mg/m^2",Grade 3 sensory neuropathy; also recorded: Grade 3 peripheral neuropathy
same,half-life,"[3]; both sexes, human, plasma, intravenous, Study S-(1)-01, after first dose, read-out: Plasma t1/2, range over dose groups",207 to 504 min
same,dose dependence of AUC (in words),[3]; weekly study,generally dose linear
same,clearance,[3]; [7],30.2+11.9 L/hr/m^2
same,tm,[3]; [7],8.6+1.3 hrs
same,anti-neoplastic activity,"[3]; weekly study, patients with advanced neoplasms",Anti-neoplastic activity was seen in a patient with pancreatic cancer
same,drug related adverse events,"[3]; weekly ×3 then 1 week rest, 7-185 mg/m^2, 25 pts","nausea, vomiting, diarrhea, fatigue, anorexia, rash, anemia and peripheral neuropathy"
same,dose that can be safely administered,[3]; weekly×3 in heavily pre-treated patients,up to 185 mg/m^2
same,difference in F with different formulations (in words),[4],no significant difference in F with different formulations
same,bioavailability,"[4]; in vivo, using a cremophor-free formulation as reference, read-out: effective F (real bioavailability)",60 to 70%
same,AUCinf,[5]; IV 10/mg/kg,7.738 µM·h
same,AUClast,[5]; IV 10/mg/kg,6.298 µM·h
same,CL,[5]; IV 10/mg/kg,1.49 L/h/kg
same,Vdss,[5]; IV 10/mg/kg,13.35 L/kg
same,t½,[5]; IV 10/mg/kg,6.1 h
same,AUCinf,[5]; Oral 10 mg/kg,3.609 µM·h
same,AUClast,[5]; Oral 10 mg/kg,3.434 µM·h
same,Cmax,[5]; Oral 10 mg/kg,460 nM
same,t½,[5]; Oral 10 mg/kg,5.1 h
same,F,[5]; Oral 10 mg/kg vs IV,47%
same,Tmax,"[5]; in vivo, Oral 10 mg/kg",6 h
same,ED50 Compound/ED50 Paclitaxel,[6]; ratio of tubulin polymerization ED50 values,0.53
same,EC50,"[6]; tubulin polymerization, 37° C. 30 minutes, percent of maximum assembly at 25 μM paclitaxel",1580 ± 460 nM
